Assay results published in ChEMBL document CHEMBL5126517, “Structure-Activity Relationship in the Leucettine Family of Kinase Inhibitors” (J Med Chem, 2022).

How the values were obtained:
HT-22 [1] = test: Neuroprotective activity against glutamate-induced cell death in mouse HT-22 cells treated for 24 hrs by MTS assay; format: functional, cell-based; details: HT-22, 24 h
[2] = biological target: Dual specificity tyrosine-phosphorylation-regulated kinase 1A (Homo sapiens, UniProt Q13627); test: Inhibition of GST-fused human recombinant DYRK1A expressed in Escherichia coli using GRSRSRSRSRSR peptide as substrate incubated for 30 mins in presence of ATP by scintillation counting method
[3] = biological target: Serine/threonine-protein kinase pim-1 (Homo sapiens, UniProt P11309); test: Inhibition of human recombinant Pim1 expressed in Escherichia coli using histone H1 as substrate incubated for 30 mins in presence of ATP by scintillation counting method
[4] = biological target: T1, Dual specificity tyrosine-phosphorylation-regulated kinase 2 (Homo sapiens, UniProt Q92630); test: Inhibition of GST-fused human recombinant DYRK2 expressed in Escherichia coli using GRSRSRSRSRSR peptide as substrate incubated for 30 mins in presence of ATP by scintillation counting method
T1 sequence (Q92630 whole entry): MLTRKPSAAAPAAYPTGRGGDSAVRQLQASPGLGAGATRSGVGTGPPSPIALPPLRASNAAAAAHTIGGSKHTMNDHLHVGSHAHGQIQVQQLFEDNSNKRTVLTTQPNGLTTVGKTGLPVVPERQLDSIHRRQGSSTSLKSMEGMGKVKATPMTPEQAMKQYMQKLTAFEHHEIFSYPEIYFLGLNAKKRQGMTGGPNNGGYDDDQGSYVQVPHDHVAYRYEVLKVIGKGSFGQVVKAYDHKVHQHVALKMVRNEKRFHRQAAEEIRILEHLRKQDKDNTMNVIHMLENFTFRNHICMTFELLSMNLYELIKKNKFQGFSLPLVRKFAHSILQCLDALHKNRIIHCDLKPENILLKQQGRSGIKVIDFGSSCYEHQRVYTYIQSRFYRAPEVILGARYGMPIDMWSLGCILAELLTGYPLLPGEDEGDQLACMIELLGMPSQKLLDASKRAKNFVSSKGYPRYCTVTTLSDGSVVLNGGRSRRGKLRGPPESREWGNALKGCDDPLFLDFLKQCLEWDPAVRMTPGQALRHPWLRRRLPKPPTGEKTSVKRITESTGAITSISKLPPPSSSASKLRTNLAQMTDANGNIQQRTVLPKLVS

[5] = biological target: T2, Dual specificity tyrosine-phosphorylation-regulated kinase 3 (Homo sapiens, UniProt O43781); test: Inhibition of GST-fused human recombinant DYRK3 expressed in Escherichia coli using GRSRSRSRSRSR peptide as substrate incubated for 30 mins in presence of ATP by scintillation counting method
T2 sequence (O43781 whole entry): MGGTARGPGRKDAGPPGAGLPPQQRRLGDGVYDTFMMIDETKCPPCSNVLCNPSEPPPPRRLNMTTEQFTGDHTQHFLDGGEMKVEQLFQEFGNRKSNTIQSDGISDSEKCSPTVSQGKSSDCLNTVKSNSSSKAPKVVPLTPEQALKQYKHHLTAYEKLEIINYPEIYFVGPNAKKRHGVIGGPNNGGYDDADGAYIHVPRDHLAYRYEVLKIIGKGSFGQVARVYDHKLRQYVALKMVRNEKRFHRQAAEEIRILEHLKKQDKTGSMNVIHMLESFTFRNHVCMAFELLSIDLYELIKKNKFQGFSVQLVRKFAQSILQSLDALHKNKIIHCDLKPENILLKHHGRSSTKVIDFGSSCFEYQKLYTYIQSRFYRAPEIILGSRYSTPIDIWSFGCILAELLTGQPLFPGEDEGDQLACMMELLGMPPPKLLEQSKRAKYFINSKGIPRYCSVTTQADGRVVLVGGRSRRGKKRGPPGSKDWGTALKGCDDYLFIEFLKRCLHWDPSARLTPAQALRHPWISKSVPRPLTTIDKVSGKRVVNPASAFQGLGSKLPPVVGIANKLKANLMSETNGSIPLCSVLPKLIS

[6] = Neurotoxicity against mouse HT-22 cells assessed as cell survival treated for 24 hrs by MTS assay; format: toxicity, cell-based
[7] = biological target: Dual specificity tyrosine-phosphorylation-regulated kinase 1B (Homo sapiens, UniProt Q9Y463)
[8] = biological target: Dual specificity protein kinase CLK1 (Mus musculus, UniProt P22518); test: Inhibition of GST-fused mouse recombinant CLK1 expressed in Escherichia coli using GRSRSRSRSRSR peptide as substrate incubated for 30 mins in presence of ATP by scintillation counting method
U2OS = test: Induction of PI3K/mTor-dependent autophagy in human U2OS cells assessed as number of LC3 foci per cell at 10 uM measured after 4 hrs; format: cell-based; details: filed as activator
[9] = biological target: Dual specificity protein kinase CLK2 (Mus musculus, UniProt O35491); test: Inhibition of mouse recombinant GST-fused CLK2 expressed in Escherichia coli using GRSRSRSRSRSR peptide as substrate incubated for 30 mins in presence of ATP by scintillation counting method
[10] = biological target: Glycogen synthase kinase-3 (Sus scrofa, UniProt B2LUN4+I6LNT8); test: Inhibition of porcine brain GSK-3alpha/beta using YRRAAVPPSPSLSRHSSPHQpSEDEEE as substrate incubated for 30 mins in presence of ATP by scintillation counting method; format: tissue-based
Casein kinase 2 = Casein kinase 2 (Homo sapiens, UniProt P67870+P68400+P19784+Q8NEV1); test: Inhibition of human recombinant CK2 using RRRDDDSDDD peptide as substrate incubated for 30 mins in presence of ATP by scintillation counting method; format: protein assay
[11] = biological target: Dual specificity protein kinase CLK4 (Mus musculus, UniProt O35493); test: Inhibition of GST-fused mouse recombinant CLK4 expressed in Escherichia coli using GRSRSRSRSRSR peptide as substrate incubated for 30 mins in presence of ATP by scintillation counting method
[12] = biological target: Dual specificity protein kinase CLK3 (Mus musculus, UniProt O35492); test: Inhibition of GST-fused mouse recombinant CLK3 expressed in Escherichia coli using GRSRSRSRSRSR peptide as substrate incubated for 30 mins in presence of ATP by scintillation counting method
Cannabinoid receptor 1 = Cannabinoid receptor 1 (Homo sapiens, UniProt P21554); test: Antagonist activity at CP-55940-activated CB1 receptor (unknown origin) at 10 uM by beta-arrestin assay relative to control; format: functional; design: scale not given: the % may be the effect or the level left
[13] = Neurotoxicity against mouse HT-22 cells assessed as cell survival at 20 uM treated for 24 hrs by MTS assay; format: toxicity, cell-based; details: ht-22, 24 h
HT-22 [14] = test: Modulation of CLK1 pre-mRNA splicing in mouse HT-22 cells assessed as inclusion of CLK1 exon 4 by measuring change in threshold cycle at 10 uM measured after 4 hrs by real time PCR analysis; format: cell-based; details: filed as modulator

Chain of Dual specificity protein kinase CLK2 (O35491 whole entry, the tested form may be a part): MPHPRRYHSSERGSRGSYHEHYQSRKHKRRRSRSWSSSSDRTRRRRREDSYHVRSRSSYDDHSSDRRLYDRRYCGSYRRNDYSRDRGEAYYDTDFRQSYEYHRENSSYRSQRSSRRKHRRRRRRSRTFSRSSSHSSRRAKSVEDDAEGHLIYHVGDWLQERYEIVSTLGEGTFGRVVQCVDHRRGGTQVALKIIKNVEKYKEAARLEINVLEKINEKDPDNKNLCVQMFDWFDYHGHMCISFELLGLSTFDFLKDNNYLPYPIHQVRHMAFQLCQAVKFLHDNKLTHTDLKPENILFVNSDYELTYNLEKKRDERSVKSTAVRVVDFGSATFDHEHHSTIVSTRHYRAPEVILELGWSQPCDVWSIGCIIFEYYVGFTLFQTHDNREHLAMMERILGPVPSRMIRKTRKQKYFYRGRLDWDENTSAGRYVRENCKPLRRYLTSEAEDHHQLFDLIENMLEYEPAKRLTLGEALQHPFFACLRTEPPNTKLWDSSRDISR
Chain of Dual specificity protein kinase CLK1 (P22518 whole entry, the tested form may be a part): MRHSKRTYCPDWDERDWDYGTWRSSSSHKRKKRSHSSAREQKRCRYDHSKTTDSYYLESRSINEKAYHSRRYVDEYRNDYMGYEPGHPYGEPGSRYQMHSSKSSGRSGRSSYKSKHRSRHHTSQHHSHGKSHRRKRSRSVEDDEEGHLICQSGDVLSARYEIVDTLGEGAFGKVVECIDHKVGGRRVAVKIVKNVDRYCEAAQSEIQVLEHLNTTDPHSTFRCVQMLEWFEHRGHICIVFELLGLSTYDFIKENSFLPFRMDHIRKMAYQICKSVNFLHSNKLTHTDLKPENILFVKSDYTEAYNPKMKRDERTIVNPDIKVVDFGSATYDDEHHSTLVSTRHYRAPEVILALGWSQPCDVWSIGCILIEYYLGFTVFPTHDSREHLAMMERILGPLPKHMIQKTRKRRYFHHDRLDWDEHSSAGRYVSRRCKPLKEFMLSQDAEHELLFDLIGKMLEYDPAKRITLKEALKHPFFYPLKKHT
Chain of Dual specificity protein kinase CLK3 (O35492 whole entry, the tested form may be a part): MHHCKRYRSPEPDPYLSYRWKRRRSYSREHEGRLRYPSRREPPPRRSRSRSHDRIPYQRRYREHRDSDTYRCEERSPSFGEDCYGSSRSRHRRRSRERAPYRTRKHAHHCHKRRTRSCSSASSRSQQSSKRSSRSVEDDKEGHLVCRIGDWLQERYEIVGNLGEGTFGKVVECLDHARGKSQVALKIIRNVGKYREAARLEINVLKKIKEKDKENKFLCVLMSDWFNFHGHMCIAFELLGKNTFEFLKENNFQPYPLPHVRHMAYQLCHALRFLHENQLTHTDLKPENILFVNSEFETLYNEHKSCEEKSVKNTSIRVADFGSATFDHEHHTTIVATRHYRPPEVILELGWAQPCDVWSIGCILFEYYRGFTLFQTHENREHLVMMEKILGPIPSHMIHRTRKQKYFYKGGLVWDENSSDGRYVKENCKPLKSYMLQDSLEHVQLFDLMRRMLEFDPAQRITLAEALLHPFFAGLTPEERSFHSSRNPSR
Chain of Cannabinoid receptor 1 (P21554 whole entry): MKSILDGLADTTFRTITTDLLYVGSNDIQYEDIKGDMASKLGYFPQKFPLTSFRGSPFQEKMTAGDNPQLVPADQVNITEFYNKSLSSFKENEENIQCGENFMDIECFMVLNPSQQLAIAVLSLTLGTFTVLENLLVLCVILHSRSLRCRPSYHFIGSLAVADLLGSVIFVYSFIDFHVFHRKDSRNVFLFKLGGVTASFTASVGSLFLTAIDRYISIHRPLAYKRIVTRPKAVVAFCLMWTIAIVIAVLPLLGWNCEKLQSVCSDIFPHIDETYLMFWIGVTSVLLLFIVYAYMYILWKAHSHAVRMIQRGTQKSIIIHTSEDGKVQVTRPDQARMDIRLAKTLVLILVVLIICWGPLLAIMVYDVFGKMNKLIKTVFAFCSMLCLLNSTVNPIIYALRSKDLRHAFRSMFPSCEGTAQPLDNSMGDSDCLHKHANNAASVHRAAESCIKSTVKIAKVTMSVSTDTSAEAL
Chain of Dual specificity tyrosine-phosphorylation-regulated kinase 1B (Q9Y463 whole entry, the tested form may be a part): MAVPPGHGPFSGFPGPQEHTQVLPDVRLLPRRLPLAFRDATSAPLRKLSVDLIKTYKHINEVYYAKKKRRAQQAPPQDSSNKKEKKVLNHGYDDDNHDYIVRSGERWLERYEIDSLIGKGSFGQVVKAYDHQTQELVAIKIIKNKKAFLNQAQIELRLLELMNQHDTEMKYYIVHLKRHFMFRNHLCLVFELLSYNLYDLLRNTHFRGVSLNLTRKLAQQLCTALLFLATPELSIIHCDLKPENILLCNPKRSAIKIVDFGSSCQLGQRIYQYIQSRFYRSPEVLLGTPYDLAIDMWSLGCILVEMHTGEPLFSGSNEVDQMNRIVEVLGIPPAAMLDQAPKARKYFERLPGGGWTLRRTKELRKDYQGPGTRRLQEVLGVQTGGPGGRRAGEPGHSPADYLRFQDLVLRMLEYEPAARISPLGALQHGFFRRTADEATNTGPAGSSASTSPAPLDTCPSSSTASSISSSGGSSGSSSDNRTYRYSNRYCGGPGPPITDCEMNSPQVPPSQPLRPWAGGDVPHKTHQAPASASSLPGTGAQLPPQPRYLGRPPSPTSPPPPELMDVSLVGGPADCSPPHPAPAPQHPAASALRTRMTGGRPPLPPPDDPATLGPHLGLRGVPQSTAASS
Chain of Dual specificity protein kinase CLK4 (O35493 whole entry, the tested form may be a part): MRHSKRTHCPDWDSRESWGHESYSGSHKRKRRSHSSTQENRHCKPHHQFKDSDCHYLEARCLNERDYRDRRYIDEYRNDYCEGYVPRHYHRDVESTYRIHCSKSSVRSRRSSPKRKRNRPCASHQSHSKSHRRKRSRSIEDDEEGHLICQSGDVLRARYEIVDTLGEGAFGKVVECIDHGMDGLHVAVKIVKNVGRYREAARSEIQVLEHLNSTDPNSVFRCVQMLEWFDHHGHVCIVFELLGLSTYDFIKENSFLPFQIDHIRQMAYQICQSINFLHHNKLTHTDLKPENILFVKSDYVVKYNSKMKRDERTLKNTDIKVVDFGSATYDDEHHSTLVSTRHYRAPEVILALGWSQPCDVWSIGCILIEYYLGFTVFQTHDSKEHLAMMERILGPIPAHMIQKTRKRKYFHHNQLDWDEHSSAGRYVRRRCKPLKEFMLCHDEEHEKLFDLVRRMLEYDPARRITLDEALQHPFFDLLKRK
Chain of Serine/threonine-protein kinase pim-1 (P11309 whole entry, the tested form may be a part): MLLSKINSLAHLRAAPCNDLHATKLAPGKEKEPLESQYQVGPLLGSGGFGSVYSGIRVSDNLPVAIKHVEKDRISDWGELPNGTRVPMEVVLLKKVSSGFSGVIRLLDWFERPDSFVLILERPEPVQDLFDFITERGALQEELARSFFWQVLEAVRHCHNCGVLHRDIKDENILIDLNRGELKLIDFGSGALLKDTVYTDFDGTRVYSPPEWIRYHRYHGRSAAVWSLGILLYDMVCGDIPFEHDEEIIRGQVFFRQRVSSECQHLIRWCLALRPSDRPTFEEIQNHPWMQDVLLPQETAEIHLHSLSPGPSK

| Compound | EC50 (HT-22 [1]) [µM] | IC50 [2] [nM] | IC50 [3] [µM] | IC50 [4] [nM] | IC50 [5] [nM] | EC50 at 24 h [6] [µM] | IC50 [7] [nM] | IC50 [8] [nM] | Activity (U2OS) | IC50 [9] [nM] | IC50 [10] [µM] | IC50 (Casein kinase 2) [µM] | IC50 [11] [nM] | IC50 [12] [nM] | Activity (Cannabinoid receptor 1) [%] | IC50 at 24 h [6] [µM] | Activity [13] | deltaCT (HT-22 [14]) | Activity (Cannabinoid receptor 1; filed as antagonist) [%] |
| --- | --- | --- | --- | --- | --- | --- | --- | --- | --- | --- | --- | --- | --- | --- | --- | --- | --- | --- | --- |
| CN(C1=N/C(=C\c2ccc3c(c2)OCO3)C(=O)N1)c1ccccc1 | > 20 | 380 | 2 | 320 | 1800 | > 20 | 680 | 310 | 4.7 | 1200 | 6.2 | 2.1 | 130 | 2600 | -9.1 | – | – | – | – |
| CN1CCN(c2ccc(NC3=N/C(=C\C4=COc5ccccc5O4)C(=O)N3)cc2)CC1 | 12 | 7 | 0.51 | 8 | 14 | – | 20 | 17 | 22 | 67 | 0.12 | 0.45 | 19 | 1100 | -1.4 | > 20 | – | – | – |
| CN1CCN(c2ccc(NC3=N/C(=C\c4ccc5c(c4)OCO5)C(=O)N3)cc2)CC1 | > 20 | 12 | 1.1 | 50 | 25 | – | – | 23 | 24.9 | 35 | 0.12 | 1.2 | 16 | 800 | -14.5 | – | Non-Toxic | 7.48 | – |
| COc1ccc(/C=C2\N=C(Nc3ccccc3)NC2=O)cc1 | 5.3 | 170 | ≥ 10 | 220 | 2100 | – | 550 | 340 | 5.8 | > 10000 | – | 2.1 | 280 | – | – | > 20 | – | – | 92.2 |
| O=C1NC(N2CCN(c3ccc(F)cc3)CC2)=N/C1=C\c1ccc2c(c1)OCCO2 | 14 | 3100 | 9.3 | 2200 | 2100 | – | ≥ 10000 | 2100 | 8.1 | 10000 | 8.2 | – | 2300 | > 10000 | 16 | > 20 | – | – | – |
| COc1cccc(/C=C2\N=C(Nc3ccccc3)NC2=O)c1 | 7.2 | > 10000 | 3.1 | > 10000 | – | > 20 | – | ≥ 10000 | 5.7 | > 10000 | – | – | 5000 | – | – | – | – | – | 71.9 |
| O=C1NC(Nc2ccccc2)=N/C1=C\c1ccc2c(c1)CCCO2 | 3.5 | 120 | 1.2 | 120 | 420 | – | 360 | 120 | 4.8 | 1800 | > 10 | 2.2 | 140 | ≥ 10000 | – | > 20 | – | – | 94 |
| Cc1ccc(NC2=N/C(=C\c3ccc4c(c3)OCO4)C(=O)N2)cc1C | 2.7 | 130 | > 10 | 55 | 1700 | > 20 | 520 | 280 | 6.6 | 2200 | > 10 | > 10 | 160 | > 10000 | – | – | – | – | 51.7 |
| Cc1ccc(NC2=N/C(=C\c3ccc4c(c3)OCO4)C(=O)N2)cc1 | 3.2 | 18 | 3.5 | 34 | 320 | – | 53 | 53 | 8.4 | 1000 | 7.3 | 1.7 | 56 | – | – | – | Non-Toxic | 2.29 | 90.8 |
| CCCNC1=N/C(=C\c2ccc3c(c2)OCO3)C(=O)N1C | > 20 | 460 | 3.2 | 95 | 1200 | – | 550 | 110 | 6.8 | 560 | 1.4 | > 10 | 120 | 2500 | -15.8 | – | Non-Toxic | 3.72 | – |
| CN1C(=O)/C(=C/c2ccc3c(c2)OCO3)N=C1Nc1ccccc1 | 14 | 93 | ≥ 10 | 80 | 870 | – | 3200 | 140 | 7.9 | 500 | 0.75 | > 10 | 110 | 1400 | -5.5 | – | Non-Toxic | 4.42 | – |
| C/C(=C1/N=C(Nc2ccccc2)NC1=O)c1ccc2c(c1)OCO2 | – | 8500 | – | 1600 | – | – | > 10000 | ≥ 10000 | 5.8 | > 10000 | – | – | 5900 | > 10000 | -42.1 | > 20 | – | 0.38 | – |
| O=C1NC(Nc2ccccc2)=NC1Cc1ccc2c(c1)OCO2 (stereo not given) | – | 5100 | – | > 10000 | > 10000 | > 20 | > 10000 | 6270 | – | > 10000 | > 10 | – | 5600 | > 10000 | – | – | – | – | – |
| O=C1NC(Nc2ccccn2)=N/C1=C\c1ccc2c(c1)OCO2 | > 20 | 44 | 0.48 | 33 | 310 | > 20 | 200 | 72 | 5.5 | 220 | 1.7 | 0.13 | 53 | 510 | -18.3 | – | – | – | – |
